Results: ChEMBL document CHEMBL3272148, “Antitumor 1-(X-aryl)-3,3-dialkyltriazenes. 2. On the role of correlation analysis in decision making in drug modification. Toxicity quantitative structure-activity relationships of 1-(X-phenyl)-3,3-dialkyltriazenes in mice” (J Med Chem, 1978)

species: Mus musculus; assay: Toxicity in mouse assessed as concentration required for producing T/C of 140; format: organism-based; conditions: in vivo

SMILES	log(1/C)
CCCN(CCC)/N=N/c1[nH]cnc1C(N)=O	2.7
CCCCCN(CCCCC)/N=N/c1[nH]cnc1C(N)=O	3.49
CCN(CC)/N=N/c1[nH]cnc1C(N)=O	2.75
CCCCN(CCCC)/N=N/c1[nH]cnc1C(N)=O	2.91
CN(C)/N=N/c1[nH]cnc1C(N)=O [DACARBAZINE]	2.44

system: L1210; assay: Antitumor activity against mouse L1210 cells allografted in mouse assessed as survival rate at 20 mg/kg relative to control; format: functional; conditions: not given

SMILES	T/C [%]
Cc1n[nH]c(C)c1/N=N/N1CCOCC1	124

system: L1210; assay: Antitumor activity against mouse L1210 cells allografted in mouse assessed as survival rate at 450 mg/kg relative to control; format: functional; conditions: not given

SMILES	T/C [%]
CCN(CC)/N=N/c1ccc[n+]([O-])c1	141

system: L1210; assay: Antitumor activity against mouse L1210 cells allografted in mouse assessed as survival rate at 200 mg/kg relative to control; format: functional; conditions: not given

SMILES	T/C [%]
CCN(CC)/N=N/c1n[nH]cc1C(N)=O	144
CCCCN(CC)/N=N/c1[nH]cnc1C(N)=O	124

species: Rattus norvegicus; assay: Toxicity in rat assessed as concentration required for producing T/C of 140; format: organism-based; conditions: in vivo

SMILES	log(1/C)
CN(C)/N=N/c1ccccc1	2.54
CN(C)/N=N/c1ccc(I)cc1	2.68
Cc1ccc(/N=N/N(C)C)cc1	2.62
CN(C)/N=N/c1ccc(Br)cc1	2.73
CN(C)/N=N/c1ccc([N+](=O)[O-])cc1	2.06
COc1ccc(/N=N/N(C)C)cc1	2.72
CN(C)/N=N/c1ccc(F)cc1	2.71
CN(C)/N=N/c1ccc(Cl)cc1	2.71

system: L1210; assay: Antitumor activity against mouse L1210 cells allografted in mouse assessed as survival rate at 32 mg/kg relative to control; format: functional; conditions: not given

SMILES	T/C [%]
CCCCN(CCCC)/N=N/c1cc(=O)[nH]c(=O)[nH]1	145

system: not listed separately; assay: Half life of the compound at pH 7.4 at 37 degC in presence of serum; format: physicochemical; conditions: not given

half-life [min]	SMILES
6	C/N=N/Nc1ccccc1

system: L1210; assay: Antitumor activity against mouse L1210 cells allografted in mouse assessed as survival rate at 100 mg/kg relative to control; format: functional; conditions: not given

SMILES	T/C [%]
CCN(CC)/N=N/c1[nH]cnc1C(N)=O	127

species: Mus musculus; assay: Toxicity in CDF1 mouse assessed as concentration required for producing T/C of 140; format: organism-based; conditions: in vivo

SMILES	log(1/C)
CN(C)/N=N/c1ccccc1	3.43
Cc1ccc(/N=N/N(C)C)cc1	3.26
CN(C)/N=N/c1ccc(C(F)(F)F)cc1	3.05
CN(C)/N=N/c1ccc(NC(N)=O)cc1	3.68
COc1ccc(/N=N/N(C)C)cc1	3.55
CN(C)/N=N/c1ccc(C#N)cc1	3.2
CCN(C)/N=N/c1ccc(C(N)=O)cc1	3.24
CN(C)/N=N/c1ccc(S(N)(=O)=O)cc1	3.2
CCCCCCCCN(C)/N=N/c1ccc(C(N)=O)cc1	2.8
CN(C)/N=N/c1ccc(C(N)=O)cc1	3.32
CCCCN(C)/N=N/c1ccc(C(N)=O)cc1	3.46
CN(C)/N=N/c1[nH]cnc1C(N)=O [DACARBAZINE]	2.68

system: L1210; assay: Antitumor activity against mouse L1210 cells allografted in mouse assessed as survival rate at 265 mg/kg relative to control; format: functional; conditions: not given

SMILES	T/C [%]
CCCN(CCC)/N=N/c1c(C)n[nH]c1C(=O)OC	131

system: L1210; assay: Antitumor activity against mouse L1210 cells allografted in mouse assessed as survival rate at 250 mg/kg relative to control; format: functional; conditions: not given

SMILES	T/C [%]
NC(=O)c1nc[nH]c1/N=N/N1CCCC1	126
